Reference: US8202880B2, “3-hydroxy-6-phenylphenanthridines as PDE4 inhibitors” (NYCOMED GmbH, priority 2002, dated 2012)

Compound `COc1cc2c(cc1OC)C1CCC(O)CC1N=C2c1ccc(OCC2CC2)c(OCC2CC2)c1` (racemic) [Compound 3, (±)-(3RS,4aRS,10bRS)-6-(3,4-Bis-cyclopropylmethoxyphenyl)-8,9-dimethoxy(1,2,3,4,4a,10b)-hexahydrophenanthridin-3-ol] has a melting point of 137 to 138 °C.

`COc1cc2c(cc1OC)[C@H]1CC[C@H](O)C[C@H]1N=C2c1ccc(OCC2CC2)c(OCC2CC2)c1` (racemic) [Compound 4, (±)-(3SR,4aRS,10bRS)-6-(3,4-Bis-cyclopropylmethoxyphenyl)-8,9-dimethoxy-1,2,3,4,4a,10b-hexahydrophenanthridin-3-ol] gave a melting point of 172.5 to 174 °C.
